The values below come from patent US5008252A, “Process for inhibiting herpes simplex virus-specified thymidine kinase” (The University of North Carolina at Chapel Hill, priority 1987, dated 1991).

The assay deals with HSV-1 (strain KOS)-infected HeLa BU cells. Put plainly: Virus yield assay. The format is cell-based. Particulars: for reversal of antiviral activity by 5'-Et-dThd: 100 μM 5'-Et-dThd, ACV 15 μM, DHPG 2 μM, FIAC 1 μM, BVDU 1 μM, 5'-NH2-dThd 500 μM; for % PFU with a 5'-Et-dThd conc. of 2.5 μM: drug (μM as in row; None = 5'-Et-dThd alone) plus 2.5 μM 5'-Et-dThd; for % PFU with a 5'-Et-dThd conc. of 25 μM: drug (μM as in row; None = 5'-Et-dThd alone) plus 25 μM 5'-Et-dThd; for % PFU with a 5'-Et-dThd conc. of 0 μM: drug alone, drug μM in parentheses in row: ACV 15, FIAC 1, DHPG 2, BVDU 1, 5'-NH2-dThd 500. As for the experimental part: Cell and virus growth inhibition. Cell growth inhibition and the virus yield assay were performed in accordance with the protocol described by Cheng, Y.-C., Grill, S.P., Ruth, J. and Bergstrom, D. E. (Antimicrob. Agents Chemother. 18:957-961 (1980)) with the exceptions that all studies were done using 5% dialyzed fetal bovine serum; the multiplicity of infection was 3 PFU/cell and Vero cells were used instead of CV-1 cells for titration in the virus yield assays.

[1] abbreviates: Table II, drug (μM as in row; None = 5'-Et-dThd alone) plus 100 μM 5'-Et-dThd.

As to `Cc1cn([C@H]2C[C@H](O)[C@@H](CN)O2)c(=O)[nH]c1=O` [5'-NH2-dThd, 5'-amino-dThd], the “reversal of antiviral activity by 5'-Et-dThd” value (shortened to “reversal of antiviral activity”) was 250 fold. Further, under “Table II”, the “% PFU with a 5'-Et-dThd conc. of 2.5 μM” value is on record as 0.3%, the “% PFU with a 5'-Et-dThd conc. of 25 μM” value is reported as 3% and the “% PFU with a 5'-Et-dThd conc. of 0 μM” value was determined as 0.2%. Moreover, the “% PFU with a 5'-Et-dThd conc. of 100 μM” value under setting [1] is listed as 50%.

`Nc1nc2c(ncn2COCCO)c(=O)[nH]1` [ACV, acyclovir]: the “reversal of antiviral activity” value was found to be 35 fold. In addition, under “Table II”, the “% PFU with a 5'-Et-dThd conc. of 2.5 μM” value is recorded as 9%, the “% PFU with a 5'-Et-dThd conc. of 25 μM” value is 45% and the “% PFU with a 5'-Et-dThd conc. of 0 μM” value amounted to 2%. The “% PFU with a 5'-Et-dThd conc. of 100 μM” value under setting [1] came to 70%.

Consider `C[C@@]1(CO)[C@H](O)CC[C@@]2(C)[C@H]1CC[C@H]1C[C@@H]3C[C@@]12CC[C@]3(O)CO` [Aphidicolin, aphidicolin], for which the “% PFU with 100 μM 5'-Et-dThd relative to aphidicolin alone” value (0.2 μM aphidicolin plus 100 μM 5'-Et-dThd) is listed as “less than one half”. Where the note is “Human alphaherpesvirus 1, HeLa, read-out: %PFU with a 5'-Et-dThd conc. of 0 μM”, the activity at 0.2 µM worked out at 54%. Also, the “%PFU with a 5'-Et-dThd conc. of 5 μM” value (Table III, aphidicolin 0.2 μM (None = 5'-Et-dThd alone) plus 5 μM 5'-Et-dThd) is on record as 65%. Besides, the “%PFU with a 5'-Et-dThd conc. of 20 μM” value (Table III, aphidicolin 0.2 μM (None = 5'-Et-dThd alone) plus 20 μM 5'-Et-dThd) is reported as 45%. Where the note is “Table III, aphidicolin 0.2 μM (None = 5'-Et-dThd alone) plus 100 μM 5'-Et-dThd”, the “% PFU with a 5'-Et-dThd conc. of 100 μM” value came out at 21%.

For the compound `O=c1[nH]c(=O)n([C@H]2C[C@H](O)[C@@H](CO)O2)cc1/C=C/Br` [BVDU, (E)-5-(2-bromovinyl)-2'-deoxyuridine], the “reversal of antiviral activity” value was 15 fold. In addition, where the note is “Table II”, the “% PFU with a 5'-Et-dThd conc. of 2.5 μM” value is 9.5%, the “% PFU with a 5'-Et-dThd conc. of 25 μM” value is recorded as 13% and the “% PFU with a 5'-Et-dThd conc. of 0 μM” value came to 0.9%.

In the case of `Nc1nc2c(ncn2COC(CO)CO)c(=O)[nH]1` [DHPG, 9-(1,3-dihydroxy-2-propoxymethyl) guanine], the “reversal of antiviral activity” value amounted to 100 fold. In addition, for the setting “Table II”, the “% PFU with a 5'-Et-dThd conc. of 2.5 μM” value amounted to 0.2%, the “% PFU with a 5'-Et-dThd conc. of 25 μM” value is given as 4% and the “% PFU with a 5'-Et-dThd conc. of 0 μM” value was found to be 0.1%. In addition, under setting [1], the “% PFU with a 5'-Et-dThd conc. of 100 μM” value is recorded as 10%.

For the compound `Nc1nc(=O)n([C@@H]2O[C@H](CO)[C@@H](O)[C@@H]2F)cc1I` [FIAC, fluoroido-arabinosyl-cytosine], the “reversal of antiviral activity” value stood at 98 fold. For the same compound, for the setting “Table II”, the “% PFU with a 5'-Et-dThd conc. of 2.5 μM” value was determined as 26%, the “% PFU with a 5'-Et-dThd conc. of 25 μM” value is 59% and the “% PFU with a 5'-Et-dThd conc. of 0 μM” value amounted to 0.6%.
